# According to publication PMC4364341, “NBD delivery improves the disease phenotype of the golden retriever model of Duchenne muscular dystrophy” (Skeletal Muscle, 2014):
# What was measured:
# [1] = dog, in vivo, iv, 10 mg/kg
# Method: In addition to efficacy, we were interested in examining the safety profile of NBD, since long-term dosing in any animal model had yet to be performed. Blood samples at pre-dose, mid dose, and terminal dose were obtained for hematology and serum chemistry analysis. […] Supplementary file 2044-5040-4-18-S2.jpeg: Additional file 2: Figure S2 Hematologic changes in NBD-treated dogs. Serum was prepared from blood samples obtained at indicated time points prior to and following dosing with NBD in wild type and GRMD dogs. Serum samples were analyzed for complete blood counts (CBC). The graphs show results for white blood cells, red blood cells, and platelet counts. Click here for file Supplementary file 2044-5040-4-18-S3.jpeg: Additional file 3: Figure S3 Clinicopathologic changes in NBD-treated dogs. Serum was prepared from blood samples obtained at indicated time points prior to and following dosing with NBD in wild type and GRMD dogs. Serum samples were analyzed for ALT, AST, GGT, bilirubin, creatinine, potassium, and creatine kinase. Click here for file
# wild type dogs = details: dog, in vivo
# Method: For mice muscles, histopathological assessment was performed as earlier described. For canine samples, CS, lateral gastrocnemius, vastus lateralis, and diaphragm muscles were assessed at the end of the 4-month treatment period when dogs were necropsied. Muscle samples were snap frozen in isopentane cooled in liquid nitrogen, and stored at -80°C. A total of 16 dogs (3 wild type, 2 wild type + NBD, 5 untreated GRMD, and 6 GRMD + NBD) were assessed. Serial frozen sections (n = 10 per dog) from each muscle were processed. For each stain, quantitation was performed on three 10 μm sections of each muscle. To determine the degree of inflammation, cells that stained with a canine specific macrophage PM2K antibody were quantitated. Muscle damage was assessed by scoring for IgG-positive myofibers using immunofluorescence, and necrotic foci by hematoxylin and eosin (H&E) staining. Centrally located nuclei (CLN) were quantified on H&E sections to determine the degree of regeneration. Staining was quantitated on an Olympus BX51 microscope with Microsuite Five software (Olympus Soft Imaging Solutions GmbH, Center Valley, PA, USA). A composite score for all four muscles, reflecting muscle injury, inflammation, and regeneration, was determined.
# [2] = test system: utrn-/-;mdx double knock out (dko) mice; details: NBD-treated dko mice; cited from earlier work
# Excerpt: Our ability to collectively achieve such a benefit in GRMD dogs, as well as in mdx diaphragm, [9, 13] and dko hearts, supports the pre-clinical efficacy of NBD. Due to interspecies differences among mice, dogs, and humans, it is difficult to say e ...
# wild type and GRMD dogs = details: dog, in vivo
# Method: NBD peptide (TALDWSWLQTE) fused to an Antennapedia protein transduction domain [9] was generated using an ABI 430A solid-phase peptide synthesizer (Applied Biosystems, Foster City, CA, USA) as previously described. NBD solutions (10 mg/mL) for the canine studies were prepared weekly. Needed volumes were calculated based on the current dog body weights, plus estimated weekly gain averages. Compound was weighed on a laboratory balance to the nearest 0.1 g and reconstituted in sterile water. Solution was then sterile-filtered through 0.22 μm filters into a sterile fluid administration bag and refrigerated at 4°C until use. […] Heart and respiratory rate, mucous membrane color, capillary refill time, and body temperature were monitored throughout the perfusion. […] The syringe pump was initially programed to administer the calculated volume over 10 min, but this was extended to 30 min when reactions were seen. Blood pressure was recorded prior to start of perfusion, at 5-min intervals throughout perfusion, and post-perfusion (Cardell® 9405 Multiparameter Monitor, Midmark Corporation, Versailles, OH, USA). Dogs were monitored for adverse reactions throughout the perfusion and for up to 30 min after completion.
# GRMD dogs = experiment: Cranial sartorius (CS) circumference, GRMD dogs; format: in vivo, dog; details: age 6 months, NBD 10 mg/kg IV 3x weekly for 4 months, n = 6
# Excerpt: We have previously shown that the CS muscle undergoes dramatic hypertrophy in GRMD dogs and that this hypertrophy tracks with postural abnormalities. Accordingly, we use CS circumference measured at surgery during routine biopsy as a surrogate for muscle hypertrophy and associated postural changes in GRMD [24]. Dogs were anesthetized (above), and an incision was made over the cranial aspect of the thigh. In advance of biopsy, the CS muscle was isolated. Nylon suture was placed around the muscle at approximately midsection and tightened so as to snugly encircle the muscle belly. The two ends of the suture were secured with a pair of hemostats and then cut on the muscle side of the hemostat. The length in mm was divided by body mass in kg (mm/kg). An average of two measurements was recorded.
sequence,measurement,setting,value
"TALDWSWLQTE [NBD, NBD peptide (…) fused to an Antennapedia protein transduction domain]",Hematology and serum chemistry analysis,[1],no adverse effects
same,Histopathological lesions in NBD treated versus untreated wild type dogs,wild type dogs,negligible
same,"Functional response, dko heart",[2],improved back to wild type
same,Blood pressure during administration,wild type and GRMD dogs,decreased
same,Onset of infusion reactions (time of treatment),"wild type and GRMD dogs; iv, 10 mg/kg",approximately 1 month
same,CS Circumference,GRMD dogs,3.67 ± 0.65 mm/kg
